US7625890B2, “Substituted imidazo[4,5-c]pyridine compounds as Akt inhibitors” (SmithKline Beecham Corp., priority 2005, dated 2009)
≈ marks a conversion by molar mass, not a printed value. Where a name gives a salt, the structure may show the parent alone.

Assay: Solubility
Assay type: physicochemical
Conditions: for solubility: aqueous buffer, 50 mM phosphate buffer, pH 7.4; for solubility, suitability for IV dosage forms: statement in words

solubility [µM] | Compound | solubility, suitability for IV dosage forms
110 | CCn1c(-c2nonc2N)nc2c(C#CC(C)(C)O)ncc(OC[C@@H]3CNCCS3)c21 (single isomer, unassigned; enantiomer e1) [Example 3, 4-{2-(4-amino-1,2,5-oxadiazol-3-yl)-1-ethyl-7-[(2-thiomorpholinylmethyl)oxy]-1H-imidazo[4,5-c]pyridin-4-yl}-2-methyl-3-butyn-2-ol dihydrochloride (enantiomer E1)] | suitable for formulation into dosage forms for IV administration
23 (≈ 10.5 µg/mL) | CCn1c(-c2nonc2N)nc2c(C#CC(C)(C)O)ncc(OC[C@@H]3CN(C)CCS3)c21 (single isomer, unassigned; enantiomer e1) [Example 7, 4-(2-(4-amino-1,2,5-oxadiazol-3-yl)-1-ethyl-7-{[(4-methyl-2-thiomorpholinyl)methyl]oxy}-1H-imidazo[4,5-c]pyridin-4-yl)-2-methyl-3-butyn-2-ol (enantiomer E1)] | 
44 | CCn1c(-c2nonc2N)nc2c(C#CC(C)(C)O)ncc(OC[C@H]3CCCN(C)C3)c21 [Example 6, 4-[2-(4-amino-1,2,5-oxadiazol-3-yl)-1-ethyl-7-({[(3S)-1-methyl-3-piperidinyl]methyl}oxy)-1H-imidazo[4,5-c]pyridin-4-yl]-2-methyl-3-butyn-2-ol, dihydrochloride] | 
34 (≈ 15 µg/mL) | CCn1c(-c2nonc2N)nc2c(C#CC(C)(C)O)ncc(OC[C@@H]3CN(C)CCO3)c21 [Example 8, 4-[2-(4-amino-1,2,5-oxadiazol-3-yl)-1-ethyl-7-({[(2S)-4-methyl-2-morpholinyl]methyl}oxy)-1H-imidazo[4,5-c]pyridin-4-yl]-2-methyl-3-butyn-2-ol] | 

Continued, molecule first:

Compound | solubility [µM] | solubility, suitability for IV dosage forms
CCn1c(-c2nonc2N)nc2c(C#CC(C)(C)O)ncc(OCC3CNCC(C)O3)c21 (stereo in doubt) [Example 9, 4-[2-(4-amino-1,2,5-oxadiazol-3-yl)-1-ethyl-7-({[(2R)-6-methyl-2-morpholinyl]methyl}oxy)-1H-imidazo[4,5-c]pyridin-4-yl]-2-methyl-3-butyn-2-ol, dihydrochloride] | 129 | suitable for formulation into dosage forms for IV administration
CCn1c(-c2nonc2N)nc2c(C#CC(C)(C)O)ncc(OC[C@H]3CCCNC3)c21 [Example 1, 4-(2-(4-amino-1,2,5-oxadiazol-3-yl)-1-ethyl-7-{[(3S)-3-Piperidinylmethyl]oxy}-1H-imidazo[4,5-c]pyridin-4-yl)-2-methyl-3-butyn-2-ol] | 210 (≈ 89.4 µg/mL) | suitable for formulation into dosage forms for IV administration
CCn1c(-c2nonc2N)nc2c(C#CC(C)(C)O)ncc(OC[C@H]3CNCCO3)c21 [Example 2, 4-(2-(4-amino-1,2,5-oxadiazol-3-yl)-1-ethyl-7-{[(2R)-2-morpholinylmethyl]oxy}-1H-imidazo[4,5-c]pyridin-4-yl)-2-methyl-3-butyn-2-ol dihydrochloric acid salt] | 188 | 
CCn1c(-c2nonc2N)nc2c(C#CC(C)(C)O)ncc(OC[C@@H]3CNCCO3)c21 [Example 4, 4-(2-(4-amino-1,2,5-oxadiazol-3-yl)-1-ethyl-7-{[(2S)-2-morpholinylmethyl]oxy}-1H-imidazo[4,5-c]pyridin-4-yl)-2-methyl-3-butyn-2-ol] | 154 (≈ 65.8 µg/mL) | suitable for formulation into dosage forms for IV administration
CCn1c(-c2nonc2N)nc2c(C#CC(C)(C)O)ncc(OCC3CCNC3)c21 (centres unmarked) [Example 5, 4-{2-(4-amino-1,2,5-oxadiazol-3-yl)-1-ethyl-7-[(3-Pyrrolidinylmethyl)oxy]-1H-imidazo[4,5-c]pyridin-4-yl}-2-methyl-3-butyn-2-ol, bis-trifluoroacetic acid salt] | 83 | 
CCN1CCO[C@H](COc2cnc(C#CC(C)(C)O)c3nc(-c4nonc4N)n(CC)c23)C1 [Example 10, 4-[2-(4-amino-1,2,5-oxadiazol-3-yl)-1-ethyl-7-({[(2S)-4-ethyl-2-morpholinyl]methyl}oxy)-1H-imidazo[4,5-c]pyridin-4-yl]-2-methyl-3-butyn-2-ol] | 6 (≈ 2.73 µg/mL) | 
